The test system of assay [1] is SARS-CoV-2 virus carrying the D614G S mutation. Format: cell-based.
For assay [2] the test system is unchanged. Type of assay: cell-based. This is another data set of the same source.

For the compound `NCCOCCOCCC(=O)NCC(=O)NC(CCC(=O)NC(Cc1c(Sc2ccc([N+](=O)[O-])cc2)[nH]c2ccccc12)C(=O)O)(CCC(=O)NC(Cc1c(Sc2ccc([N+](=O)[O-])cc2)[nH]c2ccccc12)C(=O)O)CCC(=O)NC(Cc1c(Sc2ccc([N+](=O)[O-])cc2)[nH]c2ccccc12)C(=O)O` (stereo not shown) [Compound 63], the “relative virus production vs mock-treatment, VeroE6-TMPRSS2 cells” value in assay [1] is 0.059 ± 0.018. Also, the “relative virus production vs mock-treatment, A549-ACE2 cells” value in assay [2] is 0.035 ± 0.032.
Taken in the same sequence, the figures for `CCC(CC)COC(=O)[C@H](C)N[P@](=O)(OC[C@H]1O[C@@](C#N)(c2ccc3c(N)ncnn23)[C@H](O)[C@@H]1O)Oc1ccccc1` [remdesivir, reference compound] were 0.002 ± 0.001 and 0.002 ± 0.002.

(Values after paper PMC10424185, “C-2 Thiophenyl Tryptophan Trimers Inhibit Cellular Entry of SARS-CoV-2 through Interaction with the Viral Spike (S) Protein” (Journal of Medicinal Chemistry, 2023).)
